Measurements taken from patent publication US20130204033A1, “ANTIPROLIFERATIVE COMPOUNDS, CONJUGATES THEREOF, METHODS THEREFOR, AND USES THEREOF” (Medarex, Inc., priority 2009, published 2013).
Where two headings read alike, the source gives them in different places.

Key:
Assay type in all cases: cell-based, human
PC3 = assay: ATP luminescence proliferation assay, PC3
Procedure: (§1) This example generally describes the procedures used to assay the antiproliferative activity of compounds of this invention or their conjugates. Human tumor cell lines were obtained from the American Type Culture Collection (ATCC), P.O. Box 1549, Manassas, Va. 20108, USA, and cultured according to instruction from the ATCC. Cells were seeded at 1.0×10^3 or 1.0×10^4 cells/well in 96-well plates for 3 h for ATP assays or ^3H thymidine assays, respectively. 1:3 serial dilutions of free (unconjugated) compounds or their conjugates were added to the wells. Plates were allowed to incubate for 24 to 72 h. The ^3H thymidine plates were pulsed with 1.0 μCi of ^3H-thymidine per well for the last 24 hours of the total incubation period, harvested, and read on a Top Count Scintillation Counter (Packard Instruments, Meriden, Conn.). ATP levels in the ATP plates were measured using the […]-GLO® Luminescent Cell Viability kit following the manufacturer's manual and read on a GLOMAX® 20/20 luminometer (both from Promega, Madison, Wis., USA). The EC50 values—the concentration at which an agent inhibits or reduces cell proliferation by 50% —were determined using PRISM™ software, version 4.0 (GraphPad Software, La Jolla, Calif., USA).
(§2) Using the ^3H thymidine or the ATP luminescence assay, or both, the activities of compounds of this invention were assayed against the following cancer cell lines: HCT-15 (colorectal cancer, multi-drug resistant (MDR)); Hep3B (liver cancer); LNCaP (prostate cancer, androgen receptor positive (AR^+)); MDA-MB-231 (breast cancer, estrogen receptor, progesterone receptor, and Her2 negative (triple negative)); A2058 (melanoma); U-87 MG (glioblastoma); NCI-H460 (NSCLC); A549 (NSCLC); HPAC (pancreatic cancer, primary); PC3 (prostate cancer, AR); BT474 (breast cancer, Her2 highly positive (Her2hi)); SKOV3 (ovarian cancer, Her2hi); 786-O (renal cancer); UO-31 (renal cancer, MDR); NCI-H740 (SCLC); DMS53 (SCLC); SK-BR3 (breast cancer, Her2hi); ZR-75 (breast cancer, estrogen receptor positive); OVCAR3 (ovarian cancer); HL-60 (APL); OVCAR8/Adr (ovarian cancer, MDR); CEM-Cl (ALL); Nomo-1 (AML); RPMI-8226 (MM)); Raji (lymphoma); SW-480 (colorectal cancer, metastatic); SW-620 (colorectal cancer); and H226 (lung cancer). (Not all compounds were assayed against all cell lines.)
(§3) Table 3 provides the data for the ATP luminescence proliferation assays, with an incubation period of 48, 72, or 96 h, as noted.

OVCAR3 = assay: ATP luminescence proliferation assay, OVCAR3
Method in brief: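 Seed 1.0×10^3 cells/well (3 h); add 1:3 dilution series of compound or conjugate; incubate 48, 72 or 96 h; measure ATP by luminescence; fit EC50 (50% inhibition of proliferation).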

CEM-C1 = assay: 3H thymidine proliferation assay, CEM-C1
Method in brief: (§4)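 Seeding: 1.0×10^4 cells/well, 3 h. Dosing: 1:3 serial dilutions, 72 h. Label: ^3H-thymidine 1.0 μCi/well for last 24 h, scintillation read; EC50 = 50% proliferation reduction.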

HCT-15 = assay: 3H thymidine proliferation assay, HCT-15
Method in brief: as §4

MDA-MB-231 [1] = assay: 3H thymidine proliferation assay, MDA-MB-231
Method in brief: as §4

SW-480 = assay: ATP luminescence proliferation assay, SW-480
Procedure: as §1, §2, §3

LNCaP = assay: 3H thymidine proliferation assay, LNCaP
Method in brief: as §4

Raji = assay: ATP luminescence proliferation assay, Raji
Procedure: as §1, §2, §3

OVCAR8 = assay: 3H thymidine proliferation assay, OVCAR8
Method in brief: as §4

A2058 [2] = assay: 3H thymidine proliferation assay, A2058; settings: 3H thymidine method, 72 h incubation
Method in brief: as §4

Hep3B = assay: 3H thymidine proliferation assay, Hep3B
Method in brief: as §4

UO-31 = assay: 3H thymidine proliferation assay, UO-31
Method in brief: as §4

A2058 [3] = assay: ATP luminescence proliferation assay, A2058
Procedure: as §1, §2, §3

MDA-MB-231 [4] = assay: ATP luminescence proliferation assay, MDA-MB-231
Procedure: as §1, §2, §3

HPAC = assay: 3H thymidine proliferation assay, HPAC
Method in brief: as §4

SK-BR3 = assay: 3H thymidine proliferation assay, SK-BR3; settings: 3H thymidine method, 72 h incubation
Method in brief: as §4

HL-60 = assay: ATP luminescence proliferation assay, HL-60
Method in brief: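 Read-out: luminescent ATP cell viability after 48, 72 or 96 h incubation, as noted, with 1:3 serial dilutions of unconjugated compounds or their conjugates. Plating was 1.0×10^3 cells/well, 3 h before dosing. EC50 = concentration giving 50% inhibition of proliferation.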

NCI-H460 = assay: ATP luminescence proliferation assay, NCI-H460
Procedure: as §1, §2, §3

[5] = Homo sapiens, PC-3, 48 h, read-out: EC50 PC3 (48 h), ATP luminescence, PC3, 48 h incubation
[6] = Homo sapiens, CEM/C1, read-out: EC50, CEM-C1, 3H thymidine method, 72 h incubation
[7] = Homo sapiens, HCT-15, read-out: EC50, HCT-15, 3H thymidine method, 72 h incubation
[8] = Homo sapiens, MDA-MB-231, read-out: EC50, MDA-MB-231, 3H thymidine method, 72 h incubation
[9] = Homo sapiens, SW480, 96 h, read-out: EC50 SW480 (96 h), ATP luminescence, SW480, 96 h incubation
[10] = Homo sapiens, LNCaP, read-out: EC50, LNCaP, 3H thymidine method, 72 h incubation
[11] = Homo sapiens, 72 h, read-out: EC50 Raji (72 h), ATP luminescence, Raji, 72 h incubation
[12] = Homo sapiens, OVCAR-8, read-out: EC50, OVCAR8, 3H thymidine method, 72 h incubation
[13] = Homo sapiens, Hep3B, read-out: EC50, Hep3B, 3H thymidine method, 72 h incubation
[14] = Homo sapiens, UO-31, read-out: EC50, UO-31, 3H thymidine method, 72 h incubation
[15] = Homo sapiens, A2058, 48 h, read-out: EC50 A2058 (48 h), ATP luminescence, A2058, 48 h incubation
[16] = Homo sapiens, MDA-MB-231, 48 h, read-out: EC50 MDA-MB-231 (48 h), ATP luminescence, MDA-MB-231, 48 h incubation
[17] = Homo sapiens, HPAC, read-out: EC50, HPAC, 3H thymidine method, 72 h incubation
[18] = Homo sapiens, HL-60, 72 h, read-out: EC50 HL-60 (72 h), ATP luminescence, HL-60, 72 h incubation
[19] = Homo sapiens, NCI-H460, 72 h, read-out: EC50 NCI-H460 (72 h), ATP luminescence, NCI-H460, 72 h incubation
[20] = Homo sapiens, OVCAR-3, 48 h, read-out: EC50 OVCAR3 (48 h), ATP luminescence, OVCAR3, 48 h incubation
[21] = Homo sapiens, A2058, 72 h, read-out: EC50 A2058 (72 h), ATP luminescence, A2058, 72 h incubation
[22] = Homo sapiens, MDA-MB-231, 72 h, read-out: EC50 MDA-MB-231 (72 h), ATP luminescence, MDA-MB-231, 72 h incubation
[23] = Homo sapiens, HL-60, 48 h, read-out: EC50 HL-60 (48 h), ATP luminescence, HL-60, 48 h incubation

Row | SMILES | EC50 (PC3; [5]) [nM] | EC50 (CEM-C1; [6]) [nM] | EC50 (HCT-15; [7]) [nM] | EC50 (MDA-MB-231 [1]; [8]) [nM] | EC50 (SW-480; [9]) [nM] | EC50 (LNCaP; [10]) [nM] | EC50 (Raji; [11]) [nM] | EC50 (OVCAR8; [12]) [nM] | EC50 (A2058 [2]; Homo sapiens, A2058) [nM] | EC50 (Hep3B; [13]) [nM] | EC50 (UO-31; [14]) [nM] | EC50 (A2058 [3]; [15]) [nM] | EC50 (MDA-MB-231 [4]; [16]) [nM] | EC50 (HPAC; [17]) [nM] | EC50 (SK-BR3; Homo sapiens, SK-BR-3) [nM] | EC50 (HL-60; [18]) [nM] | EC50 (NCI-H460; [19]) [nM] | EC50 (OVCAR3; [20]) [nM] | EC50 (A2058 [3]; [21]) [nM] | EC50 (MDA-MB-231 [4]; [22]) [nM] | other results
1 | CC[C@H](C)[C@H](NC(=O)[C@H]1CCCCN1C)C(=O)N(C)[C@H](C[C@@H](OC)c1nc(C(=O)N[C@H](CCC(=O)OC)Cc2ccccc2)cs1)C(C)C [Compound 26] | > 3000 | 22 | 31 | 15 | 67 | > 3000 | 46 | 201 | 25 | 18 | 50 | 93 | 120 | 11 | 32 | 27 | 90 |  |  |  | EC50 (OVCAR3; Homo sapiens, OVCAR-3, 72 h, read-out: EC50 OVCAR3 (72 h), ATP luminescence, OVCAR3, 72 h incubation): 49 nM
2 | CC[C@H](C)[C@H](NC(=O)[C@H]1CCCCN1C)C(=O)N(C)[C@H](C[C@@H](OC)c1nc(C(=O)NC(Cc2ccccc2)C[C@H](C)C(=O)O)cs1)C(C)C (stereo partly drawn) [Compound 15] | > 100 | 0.93 | 67 | 1.3 | 5.6 | 27 | 2.5 | 423 | 1.6 | 1.6 | 15 | 3.5 | 5.6 | 3 | 17 | 2.7 |  | > 100 |  |  | EC50 (NCI-H460; Homo sapiens, NCI-H460, 48 h, read-out: EC50 NCI-H460 (48 h), ATP luminescence, NCI-H460, 48 h incubation): 6.7 nM
3 | CC[C@H](C)[C@H](NC(=O)[C@H]1CCCCN1C)C(=O)N(C)[C@H](C[C@@H](OC(C)=O)c1nc(C(=O)N[C@@H](Cc2ccc(N)cc2)CC(C)C(=O)O)cs1)C(C)C (stereo partly drawn) [Compound 36] | 78 | 44 | 64 | > 100 | 81 | 342 | 24 | > 100 | 60 | 39 | > 100 |  |  | 83 | > 100 |  | 16 | > 300 | 43 | 9.6 | EC50 (HL-60; [23]): 114 nM
4 | CC[C@H](C)[C@H](NC(=O)[C@H]1CCCCN1C)C(=O)N(COC(=O)CC(C)C)[C@H](C[C@@H](OC(C)=O)c1nc(C(=O)N[C@@H](Cc2ccc(N)cc2)CC(C)C(=O)O)cs1)C(C)C (stereo partly drawn) [Compound 54] | 3.1 | 0.38 | 0.44 | 1.6 | 1.6 | 16 | 1.2 | 2.1 | 0.64 | 0.3 | 1.3 |  |  | 0.83 | 1.1 |  | 1.6 | > 100 | 1.4 | 5.6 | EC50 (HL-60; [23]): 2.5 nM
5 | CC[C@H](C)[C@H](NC(=O)[C@H]1CCCCN1C)C(=O)N(COC(=O)CC(C)C)[C@H](C[C@@H](OC(C)=O)c1nc(C(=O)N[C@@H](Cc2ccccc2)C(=O)OC)cs1)C(C)C [Compound 29] |  |  |  |  |  |  |  |  |  |  |  |  |  |  |  |  |  |  |  |  | EC50 (PC3; ATP luminescence, PC3, 48 h incubation, read-out: EC50 PC3 (48 h)): 3.4 nM; EC50 (OVCAR3; ATP luminescence, OVCAR3, 48 h incubation, read-out: EC50 OVCAR3 (48 h)): > 100 nM; EC50 (CEM-C1; 3H thymidine method, 72 h incubation, read-out: EC50, CEM-C1): 0.019 nM; EC50 (HCT-15; 3H thymidine method, 72 h incubation, read-out: EC50, HCT-15): 0.18 nM; EC50 (MDA-MB-231 [1]; 3H thymidine method, 72 h incubation, read-out: EC50, MDA-MB-231): 0.13 nM; EC50 (SW-480; ATP luminescence, SW480, 96 h incubation, read-out: EC50 SW480 (96 h)): 2.7 nM; EC50 (LNCaP; 3H thymidine method, 72 h incubation, read-out: EC50, LNCaP): 0.54 nM; EC50 (Raji; ATP luminescence, 72 h incubation, read-out: EC50 Raji (72 h)): 2.1 nM; EC50 (OVCAR8; 3H thymidine method, 72 h incubation, read-out: EC50, OVCAR8): 0.7 nM; EC50 (A2058 [2]): 0.4 nM; EC50 (Hep3B; 3H thymidine method, 72 h incubation, read-out: EC50, Hep3B): 0.041 nM; EC50 (UO-31; 3H thymidine method, 72 h incubation, read-out: EC50, UO-31): 0.13 nM; EC50 (A2058 [3]; ATP luminescence, A2058, 72 h incubation, read-out: EC50 A2058 (72 h)): 2.9 nM; EC50 (MDA-MB-231 [4]; ATP luminescence, MDA-MB-231, 72 h incubation, read-out: EC50 MDA-MB-231 (72 h)): 5.1 nM; EC50 (HPAC; 3H thymidine method, 72 h incubation, read-out: EC50, HPAC): 0.069 nM; EC50 (SK-BR3): 1.1 nM; EC50 (HL-60; ATP luminescence, HL-60, 48 h incubation, read-out: EC50 HL-60 (48 h)): 0.59 nM; EC50 (NCI-H460; ATP luminescence, NCI-H460, 72 h incubation, read-out: EC50 NCI-H460 (72 h)): 3 nM
